In PMC6522981, “Structure-based design generated novel hydroxamic acid based preferential HDAC6 lead inhibitor with on-target cytotoxic activity against primary choroid plexus carcinoma” (Journal of Enzyme Inhibition and Medicinal Chemistry, 2019):
Read-outs that look alike come from different tables or passages of the source.

Assays:
human HDAC8 = molecular target: T1, human HDAC8 (Homo sapiens, UniProt Q9BY41); experiment: HDAC8 inhibitor enzymatic assay, % inhibition at fixed concentration; assay type: biochemical; conditions: read-out: %inhibition of HDACs at 10µM of test compound HDAC8; 10 µM compound
T1 construct: purchased BPS Bioscience 50008
T1 sequence (Q9BY41 1-377): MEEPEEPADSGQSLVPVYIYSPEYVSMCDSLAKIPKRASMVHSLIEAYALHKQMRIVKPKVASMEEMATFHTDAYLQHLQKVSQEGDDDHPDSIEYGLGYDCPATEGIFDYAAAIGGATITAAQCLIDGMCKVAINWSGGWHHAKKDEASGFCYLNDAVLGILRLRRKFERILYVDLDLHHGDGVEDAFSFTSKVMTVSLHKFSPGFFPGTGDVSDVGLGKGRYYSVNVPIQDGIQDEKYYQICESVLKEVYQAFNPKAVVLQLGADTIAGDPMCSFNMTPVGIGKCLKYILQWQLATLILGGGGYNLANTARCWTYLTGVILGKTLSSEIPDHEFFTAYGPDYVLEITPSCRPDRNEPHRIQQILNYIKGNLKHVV

human HDAC9 = human HDAC9 (Homo sapiens, UniProt Q9UKV0); experiment: HDAC9 inhibitor enzymatic assay, % inhibition at fixed concentration; conditions: read-out: %inhibition of HDACs at 10µM of test compound HDAC9
human HDAC9, sequence (Q9UKV0 1-1066 isoform Q9UKV0-5): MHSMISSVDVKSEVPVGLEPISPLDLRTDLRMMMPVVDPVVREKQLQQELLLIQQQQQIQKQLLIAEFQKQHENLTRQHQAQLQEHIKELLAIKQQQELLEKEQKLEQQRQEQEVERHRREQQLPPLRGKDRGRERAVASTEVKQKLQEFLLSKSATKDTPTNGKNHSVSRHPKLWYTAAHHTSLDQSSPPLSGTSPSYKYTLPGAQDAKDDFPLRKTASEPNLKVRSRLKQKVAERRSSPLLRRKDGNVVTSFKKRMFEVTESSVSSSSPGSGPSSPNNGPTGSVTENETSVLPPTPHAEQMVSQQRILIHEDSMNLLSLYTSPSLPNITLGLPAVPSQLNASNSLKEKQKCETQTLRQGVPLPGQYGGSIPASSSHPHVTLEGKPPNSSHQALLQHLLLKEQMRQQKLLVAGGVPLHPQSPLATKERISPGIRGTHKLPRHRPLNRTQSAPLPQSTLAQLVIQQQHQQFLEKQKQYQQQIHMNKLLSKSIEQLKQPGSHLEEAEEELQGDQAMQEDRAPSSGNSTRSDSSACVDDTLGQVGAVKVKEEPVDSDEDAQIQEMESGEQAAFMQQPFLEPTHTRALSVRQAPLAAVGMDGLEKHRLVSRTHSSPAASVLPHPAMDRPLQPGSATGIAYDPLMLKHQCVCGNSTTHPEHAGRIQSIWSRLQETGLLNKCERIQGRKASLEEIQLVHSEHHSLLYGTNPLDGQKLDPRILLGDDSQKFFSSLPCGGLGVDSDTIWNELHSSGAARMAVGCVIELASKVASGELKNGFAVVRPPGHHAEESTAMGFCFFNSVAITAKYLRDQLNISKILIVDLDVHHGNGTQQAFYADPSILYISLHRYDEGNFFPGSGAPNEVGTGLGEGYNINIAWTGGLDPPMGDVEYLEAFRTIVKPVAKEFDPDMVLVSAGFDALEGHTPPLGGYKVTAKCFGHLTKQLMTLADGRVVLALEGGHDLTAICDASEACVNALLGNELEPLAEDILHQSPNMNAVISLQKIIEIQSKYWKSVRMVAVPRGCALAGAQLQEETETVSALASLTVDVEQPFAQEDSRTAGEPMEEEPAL

human HDAC4 = human HDAC4 (Homo sapiens, UniProt P56524); experiment: HDAC4 inhibitor enzymatic assay, % inhibition at fixed concentration; conditions: read-out: %inhibition of HDACs at 10µM of test compound HDAC4
human HDAC4, sequence (P56524 627-1084 limits assumed): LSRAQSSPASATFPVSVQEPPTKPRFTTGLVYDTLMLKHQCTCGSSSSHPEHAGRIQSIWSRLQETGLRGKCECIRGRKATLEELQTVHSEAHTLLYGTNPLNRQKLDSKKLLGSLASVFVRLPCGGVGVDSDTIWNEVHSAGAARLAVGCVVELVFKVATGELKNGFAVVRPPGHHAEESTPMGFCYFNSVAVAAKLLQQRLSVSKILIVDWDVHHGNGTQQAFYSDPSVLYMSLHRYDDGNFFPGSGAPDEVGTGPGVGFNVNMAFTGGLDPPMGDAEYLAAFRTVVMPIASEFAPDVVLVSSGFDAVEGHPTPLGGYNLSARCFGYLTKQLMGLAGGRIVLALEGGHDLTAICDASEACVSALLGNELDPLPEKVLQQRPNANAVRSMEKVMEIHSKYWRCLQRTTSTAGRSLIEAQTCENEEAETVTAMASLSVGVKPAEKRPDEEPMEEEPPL

human HDAC2 = molecular target: T2, human HDAC2 (Homo sapiens, UniProt Q92769); experiment: HDAC2 inhibitor enzymatic assay, % inhibition at fixed concentration; assay type: biochemical; conditions: read-out: %inhibition of HDACs at 10µM of test compound HDAC2; 10 µM compound; mean of two replicates
T2 construct: purchased BPS Bioscience 50002
T2 sequence (Q92769 whole entry): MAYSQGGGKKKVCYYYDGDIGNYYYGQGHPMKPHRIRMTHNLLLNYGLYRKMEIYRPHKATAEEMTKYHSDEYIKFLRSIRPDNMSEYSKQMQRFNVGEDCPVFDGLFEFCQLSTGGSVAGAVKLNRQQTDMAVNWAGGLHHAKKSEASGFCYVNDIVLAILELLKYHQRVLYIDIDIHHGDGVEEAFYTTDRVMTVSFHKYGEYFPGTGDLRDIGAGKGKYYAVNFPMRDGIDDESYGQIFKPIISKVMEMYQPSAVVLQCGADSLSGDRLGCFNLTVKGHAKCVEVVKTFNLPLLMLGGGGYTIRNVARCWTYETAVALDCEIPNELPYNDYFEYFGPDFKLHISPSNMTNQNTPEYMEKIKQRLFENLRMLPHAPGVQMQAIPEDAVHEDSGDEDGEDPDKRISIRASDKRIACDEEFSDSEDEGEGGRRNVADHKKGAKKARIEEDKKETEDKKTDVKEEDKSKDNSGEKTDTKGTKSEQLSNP

human HDAC6 = molecular target: T3, human HDAC6 (Homo sapiens, UniProt Q9UBN7); experiment: IC50 of the test inhibitor against HDAC6 (10-dose enzymatic assay); assay type: biochemical; parameters: purchased BPS Bioscience 50006; conditions: for activity at 0.0003 µM: 0.0003 µM compound; for activity at 0.001 µM: 0.001 µM compound; for activity at 0.003 µM: 0.003 µM compound; for activity at 0.01 µM: 0.01 µM compound; for activity at 0.03 µM: 0.03 µM compound; for activity at 0.1 µM: 0.1 µM compound; for activity at 0.3 µM: 0.3 µM compound; for activity at 1 µM: 1 µM compound; for activity at 3 µM: 3 µM compound; for activity at 10 µM: 10 µM compound
T3 sequence (Q9UBN7 1-1215): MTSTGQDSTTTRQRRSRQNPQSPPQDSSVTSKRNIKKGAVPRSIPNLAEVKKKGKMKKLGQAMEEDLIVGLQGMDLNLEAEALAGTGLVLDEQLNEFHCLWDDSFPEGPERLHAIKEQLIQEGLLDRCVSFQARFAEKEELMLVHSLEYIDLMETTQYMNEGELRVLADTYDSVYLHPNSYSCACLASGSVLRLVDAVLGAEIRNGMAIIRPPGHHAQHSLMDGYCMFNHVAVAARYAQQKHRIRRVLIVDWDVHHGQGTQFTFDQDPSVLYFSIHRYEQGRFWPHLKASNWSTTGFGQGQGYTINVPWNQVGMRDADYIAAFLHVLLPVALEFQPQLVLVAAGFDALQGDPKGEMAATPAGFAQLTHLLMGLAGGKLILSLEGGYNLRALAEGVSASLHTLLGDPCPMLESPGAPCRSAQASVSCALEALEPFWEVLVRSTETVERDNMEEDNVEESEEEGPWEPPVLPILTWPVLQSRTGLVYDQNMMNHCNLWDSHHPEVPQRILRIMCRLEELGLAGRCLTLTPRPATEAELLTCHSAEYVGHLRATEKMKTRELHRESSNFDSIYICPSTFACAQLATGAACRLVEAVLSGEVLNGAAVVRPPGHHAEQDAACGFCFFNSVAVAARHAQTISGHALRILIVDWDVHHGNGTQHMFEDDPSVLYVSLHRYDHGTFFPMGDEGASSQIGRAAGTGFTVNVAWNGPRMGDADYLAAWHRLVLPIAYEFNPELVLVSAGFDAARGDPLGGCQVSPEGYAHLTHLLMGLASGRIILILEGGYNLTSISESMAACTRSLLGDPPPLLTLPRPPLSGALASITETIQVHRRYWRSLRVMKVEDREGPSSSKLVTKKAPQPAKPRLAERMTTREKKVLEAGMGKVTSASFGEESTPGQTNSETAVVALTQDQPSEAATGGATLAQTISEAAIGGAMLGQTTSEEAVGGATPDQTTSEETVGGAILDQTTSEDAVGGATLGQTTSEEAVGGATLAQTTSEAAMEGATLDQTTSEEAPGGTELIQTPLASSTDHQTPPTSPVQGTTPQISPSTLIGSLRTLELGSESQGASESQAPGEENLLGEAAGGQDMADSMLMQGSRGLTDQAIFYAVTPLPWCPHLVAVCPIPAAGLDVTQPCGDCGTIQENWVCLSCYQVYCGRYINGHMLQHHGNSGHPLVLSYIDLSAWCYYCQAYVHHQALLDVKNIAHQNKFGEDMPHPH

human HDAC1 = molecular target: T4, human HDAC1 (Homo sapiens, UniProt Q13547); experiment: HDAC1 inhibitor enzymatic assay, % inhibition at fixed concentration (BPS Bioscience, fluorogenic); assay type: biochemical; conditions: read-out: %inhibition of HDACs at 10µM of test compound HDAC1; 10 µM compound; mean of two replicates
T4 construct: purchased BPS Bioscience 50051
T4 sequence (Q13547 whole entry): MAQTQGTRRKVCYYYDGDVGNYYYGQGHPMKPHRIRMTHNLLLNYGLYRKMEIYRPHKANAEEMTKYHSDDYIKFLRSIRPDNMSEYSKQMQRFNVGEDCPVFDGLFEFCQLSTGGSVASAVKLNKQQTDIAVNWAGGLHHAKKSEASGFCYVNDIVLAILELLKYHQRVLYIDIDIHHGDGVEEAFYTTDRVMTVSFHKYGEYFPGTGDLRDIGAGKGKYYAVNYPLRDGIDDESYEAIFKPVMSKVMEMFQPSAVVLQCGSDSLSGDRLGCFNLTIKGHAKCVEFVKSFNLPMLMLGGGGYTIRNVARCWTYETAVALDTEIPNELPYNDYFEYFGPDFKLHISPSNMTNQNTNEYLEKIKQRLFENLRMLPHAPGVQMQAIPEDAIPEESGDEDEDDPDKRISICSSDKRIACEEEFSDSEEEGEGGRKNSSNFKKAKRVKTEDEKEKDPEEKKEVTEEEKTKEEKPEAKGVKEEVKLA

human HDAC11 = molecular target: T5, human HDAC11 (Homo sapiens, UniProt Q96DB2); experiment: HDAC11 inhibitor enzymatic assay, % inhibition at fixed concentration; conditions: read-out: %inhibition of HDACs at 10µM of test compound HDAC11
T5 sequence (Q96DB2 1-347): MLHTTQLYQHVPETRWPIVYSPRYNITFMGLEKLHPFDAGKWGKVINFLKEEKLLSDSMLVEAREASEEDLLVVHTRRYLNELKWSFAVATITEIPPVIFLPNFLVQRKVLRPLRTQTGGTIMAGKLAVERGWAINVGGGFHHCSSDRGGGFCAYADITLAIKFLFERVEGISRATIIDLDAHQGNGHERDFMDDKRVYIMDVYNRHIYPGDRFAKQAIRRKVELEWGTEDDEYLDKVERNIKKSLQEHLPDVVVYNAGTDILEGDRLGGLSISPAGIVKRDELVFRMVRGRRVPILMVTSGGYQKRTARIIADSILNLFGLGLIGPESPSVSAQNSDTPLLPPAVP

[1] = Repeat1, read-out: HDAC6 % Activity Repeat1
[2] = Repeat2, read-out: HDAC6 % Activity Repeat2

inhibition at 10 µM (human HDAC8): 56% | inhibition at 10 µM (human HDAC9): 5% | inhibition at 10 µM (human HDAC4): 1% | inhibition at 10 µM (human HDAC2): 19% | activity at 0.0003 µM (human HDAC6; [1]): 100% | activity at 0.0003 µM (human HDAC6; [2]): 99% | activity at 0.001 µM (human HDAC6; [1]): 98% | activity at 0.001 µM (human HDAC6; [2]): 100% | activity at 0.003 µM (human HDAC6; [1]): 100% | activity at 0.003 µM (human HDAC6; [2]): 95% | activity at 0.01 µM (human HDAC6; [1]): 95% | activity at 0.01 µM (human HDAC6; [2]): 100% | activity at 0.03 µM (human HDAC6; [1]): 93% | activity at 0.03 µM (human HDAC6; [2]): 94% | activity at 0.1 µM (human HDAC6; [1]): 86% | activity at 0.1 µM (human HDAC6; [2]): 82% | activity at 0.3 µM (human HDAC6; [1]): 61% | activity at 0.3 µM (human HDAC6; [2]): 63% | activity at 1 µM (human HDAC6; [1]): 33% | activity at 1 µM (human HDAC6; [2]): 33% | activity at 3 µM (human HDAC6; [1]): 13% | activity at 3 µM (human HDAC6; [2]): 14% | activity at 10 µM (human HDAC6; [1]): 5% | activity at 10 µM (human HDAC6; [2]): 5% | inhibition at 10 µM (human HDAC1): 36% | inhibition at 10 µM (human HDAC11): 6%
SMILES: O=C(CCCSc1nc2ccccc2n1Cc1ccccc1)NO [Compound 10a, 4-((1-benzyl-1H-benzo[d]imidazol-2-yl)thio)-N-hydroxybutanamide]
